Experiment [1] has as its system U87MG cells. The experiment can be described thus: Inhibition of in vitro proliferation of U87MG cells (CTG). In kind it is cell-based. Particulars: Homo sapiens, U-87 MG, 144 h, read-out: IC50 (nM) U87. On the procedure:
(§1) This experiment was intended to test the inhibitory activity of the pharmaceutical compounds of the present disclosure against the in vitro proliferation of U87MG cells (glioma cells, Cell Bank, Chinese Academy of Sciences, Catalog #TCHu138) and SK-BR-3 tumor cells (human breast cancer cells, ATCC, Catalog #HTB-30). The cells were treated in vitro with a compound at different concentrations. After 6 days of culture, the proliferation of cells was tested using CTG (CellTiter-Glo® Luminescent Cell Viability Assay, Promega, Catalog #G7573) reagents, and the in vitro activity of the compound was evaluated according to the IC50 value.
(§2) The method of testing the inhibition of the in vitro proliferation of U87MG cells was described below as an example for the method of assaying for the inhibitory activity of the compounds of the present disclosure against the in vitro proliferation of tumor cells. The method is also applicable to, but not limited to, tests for inhibitory activity against the in vitro proliferation of other tumor cells.
(§3) 1. Cell culture: U87MG and SK-BR-3 cells were cultured in EMEM medium (GE, Catalog #SH30024.01) containing 10% FBS and McCoy's 5A medium (Gibco, Catalog #16600-108) containing 10% FBS, respectively.
(§4) 2. Preparation of cells. U87MG and SK-BR-3 cells growing at log phase were washed once with PBS (phosphate buffer, Shanghai BasalMedia Technologies Co., Ltd.) and then digested with 2-3 mL of trypsin (0.25% Trypsin-EDTA (1×), Gibico, Life Technologies) for 2-3 min. After the cells were completely digested, 10-15 mL of cell culture media were added to elute the digested cells. The mixtures were centrifuged at 1000 rpm for 5 min, and the supernatants were discarded. Then the cells were resuspended in 10-20 mL of cell culture media to give single-cell suspensions.
3. Cell plating. The U87MG and SK-BR-3 single-cell suspensions were each well mixed and adjusted with cell culture media to cell densities of 2.75×10^3 cells/mL and 8.25×10^3 cells/mL, respectively. The adjusted cell suspensions were each well mixed and added to 96-well cell culture plates at 180 μL/well. To each of the peripheral wells of the 96-well plates was added 200 μL of media only. The plate was incubated in an incubator for 24 h (37° C., 5% CO2).
4. Preparation of compounds. A compound was dissolved in DMSO (dimethyl sulfoxide, Shanghai Titan Scientific Co., Ltd.) to prepare a stock solution at an initial concentration of 10 mM.
Small molecule compounds were prepared at an initial concentration of 500 nM as follows.
Different test samples at concentration 100 μM (30 μL) were added to the first column of a 96-well U-bottom plate, and 20 μL of DMSO was added to each well of the second column through the eleventh column. The samples in the first column (10 μL) were added to the 20 μL of DMSO in the second column, and the mixtures were well mixed. The mixtures (10 μL) were added to the third column, and so on to the tenth column. The drugs in the plate (5 μL per well) were transferred to EMEM media (95 μL), and the mixtures were well mixed for later use.
5. Sample addition. The test samples prepared at different concentrations (20 μL) were added to a culture plate, with two duplicate wells set for each sample. […]
(§5) 7. Plate reading. The 96-well cell culture plate was taken out and tested in a microplate reader (BMG labtech, PHERAstar FS) for chemiluminescence.
(§6) Data were processed and analyzed using Microsoft Excel and Graphpad Prism 5.

Experiment [2] relates to SK-BR-3 tumor cells. The experiment can be described thus: Inhibition of in vitro proliferation of SK-BR-3 tumor cells (CTG). The experiment is classed as cell-based. The conditions noted are these: Homo sapiens, SK-BR-3, 144 h, read-out: IC50 (nM) SK-BR-3. Here is the method:
as §1, §2, §3, §4
3. Cell plating. […]
as §5, §6

Where [3] appears, read: in vitro proliferation, 6 days, CTG.

Where two headings read alike, the source gives them in different places.

Data on six molecules can be found in patent US20230054458A1, “ANTI-CLAUDIN ANTIBODY-DRUG CONJUGATE AND PHARMACEUTICAL USE THEREOF” (JIANGSU HENGRUI MEDICINE CO., LTD., priority 2019, published 2023).

For `CC[C@@]1(O)C(=O)OCc2c1cc1n(c2=O)Cc2c-1nc1cc(F)c(C)c3c1c2[C@@H](NC(=O)C1(CO)CC1)CC3` [Example 5, N-((1S,9S)-9-ethyl-5-fluoro-9-hydroxy-4-methyl-10,13-dioxo-2,3,9,10,13,15-hexahydro-1H,12H-benzo[de]pyrano[3′,4′:6,7]indolizino[1,2-b]quinolin-1-yl)-1-(hydroxymethyl)cyclopropane-1-carboxamide], the IC50 in experiment [1] stood at 4.81 nM. On to `CC[C@@]1(O)C(=O)OCc2c1cc1n(c2=O)Cc2c-1nc1cc(F)c(C)c3c1c2[C@@H](NC(=O)[C@H](O)C1CC1)CC3` [(R)-2-cyclopropyl-N-((1S,9S)-9-ethyl-5-fluoro-9-hydroxy-4-methyl-10,13-dioxo-2,3,9,10,13,15-hexahydro-1H,12H-benzo[de]pyrano[3′,4′:6,7]indolizino[1,2-b]quinolin-1-yl)-2-hydroxyacetamide], for which the values for the IC50 in experiment [2] (setting [3]) and in experiment [1] (setting [3]) were 0.33 nM and 0.86 nM, respectively. As for `CC[C@@]1(O)C(=O)OCc2c1cc1n(c2=O)Cc2c-1nc1cc(F)c(C)c3c1c2[C@@H](NC(=O)C1(CO)CCC1)CC3` [Example 6, N-((1S,9S)-9-ethyl-5-fluoro-9-hydroxy-4-methyl-10,13-dioxo-2,3,9,10,13,15-hexahydro-1H,12H-benzo[de]pyrano[3′,4′:6,7]indolizino[1,2-b]quinolin-1-yl)-1-(hydroxymethyl)cyclobutane-1-carboxamide], in experiment [1] (setting [3]), the IC50 turned out to be 1.83 nM. Turning to `CC[C@@]1(O)C(=O)OCc2c1cc1n(c2=O)Cc2c-1nc1cc(F)c(C)c3c1c2[C@@H](NC(=O)C1(O)CC1)CC3` [Example 1, N-((1S,9S)-9-ethyl-5-fluoro-9-hydroxy-4-methyl-10,13-dioxo-2,3,9,10,13,15-hexahydro-1H,12H-benzo[de]pyrano[3′,4′:6,7]indolizino[1,2-b]quinolin-1-yl)-1-hydroxycyclopropane-1-carboxamide], the IC50 in experiment [2] came out at 0.12 nM; in experiment [1], 0.23 nM. On to `CC[C@@]1(O)C(=O)OCc2c1cc1n(c2=O)Cc2c-1nc1cc(F)c(C)c3c1c2[C@@H](NC(=O)C1(O)CCC1)CC3` [Example 7, N-((1S,9S)-9-ethyl-5-fluoro-9-hydroxy-4-methyl-10,13-dioxo-2,3,9,10,13,15-hexahydro-1H,12H-benzo[de]pyrano[3′,4′:6,7]indolizino[1,2-b]quinolin-1-yl)-1-hydroxycyclobutane-1-carboxamide], for which, in experiment [1] (setting [3]), the concentration for half-maximal inhibition (IC50) came to 1.95 nM. `CC[C@@]1(O)C(=O)OCc2c1cc1n(c2=O)Cc2c-1nc1cc(F)c(C)c3c1c2[C@@H](NC(=O)C1(O)CCCC1)CC3` [Example 4, N-((1S,9S)-9-ethyl-5-fluoro-9-hydroxy-4-methyl-10,13-dioxo-2,3,9,10,13,15-hexahydro-1H,12H-benzo[de]pyrano[3′,4′:6,7]indolizino[1,2-b]quinolin-1-yl)-1-hydroxycyclopentane-1-carboxamide]: in experiment [2], the IC50 amounted to 1.9 nM.
